Source: article PMC12040169 (PLOS Biology, 2025)

Assay: in vitro
Details: human, hela cells, % viability

Cc1ccc2nc(CSc3ncnc4sc(C)cc34)[nH]c2c1 [CBK270047]
viability at 28.5 h, 10 µM: 97.1%

CCC(C)(C)C1CCc2c(sc(NC(=O)CN3CCOCC3)c2C#N)C1 (stereo not shown) [CBK270048]
viability at 28.5 h, 10 µM: 89.4%

O=C(O)CCCn1cc(NC(=O)c2cccc(F)c2)cn1 [CBK270051]
viability at 28.5 h, 10 µM: 91.4%

COc1ccc(C(=O)Nc2cnn(CCCC(=O)O)c2)cc1 [CBK270052]
viability at 28.5 h, 10 µM: 89.7%

COc1cccc(C(=O)Nc2ccc(-c3noc(-c4ccccn4)n3)cc2)c1 [CBK270055]
viability at 28.5 h, 10 µM: 110%

O=C(NCCN1CCOCC1)N(c1ccccc1)c1ccccc1 [CBK270057]
viability at 28.5 h, 10 µM: 92.8%

Clc1ccc(COc2cccc(CNCc3ccccn3)c2)c(Cl)c1 [CBK270060C]
viability at 28.5 h, 10 µM: 88.8%

N#Cc1ccc(Cn2cc(C(=O)C(N)=O)c3ccccc32)cc1 [CBK270062]
viability at 28.5 h, 10 µM: 84.2%

COc1nc2ccccc2nc1CCC(=O)NC(C)c1ccccc1 (stereo not shown) [CBK270065]
viability at 28.5 h, 10 µM: 100%

COc1ccc2oc(=O)c(C(=O)Nc3cccc(O)c3)cc2c1 [CBK270070]
viability at 28.5 h, 10 µM: 87.3%

COc1ccc(CN2CCNC(=O)C2CC(=O)O)c(OC)c1 (stereo not shown) [CBK270072]
viability at 28.5 h, 10 µM: 112%

Cc1ccc(S(=O)(=O)c2ccccc2)cc1S(=O)(=O)NCc1ccncc1 [CBK270073]
viability at 28.5 h, 10 µM: 98.4%

Fc1ccc(CSc2nnc(-c3ccccn3)[nH]2)cc1 [CBK270074]
viability at 28.5 h, 10 µM: 85.8%

O=C(Nc1ccccc1C(=O)NCCN1CCOCC1)c1cccs1 [CBK270077]
viability at 28.5 h, 10 µM: 94.4%

O=C1CC(N2CCN(CCc3ccncc3)CC2)C(=O)N1c1ccc(Cl)cc1 (stereo not shown) [CBK270078]
viability at 28.5 h, 10 µM: 85.6%

O=C(O)C1CC=CCC1C(=O)NCc1ccc(N2CCCC2=O)cc1 (stereo not shown) [CBK270081]
viability at 28.5 h, 10 µM: 79.7%

COc1cc(CNCc2cccnc2)ccc1OCc1cccs1 [CBK270082C]
viability at 28.5 h, 10 µM: 86.7%

C=CCNC(=O)c1ccccc1NC(=O)Cc1ccc(Cl)cc1 [CBK270086]
viability at 28.5 h, 10 µM: 101%

O=C(O)CC1C(=O)NCCN1C1Cc2ccccc2C1 (stereo not shown) [CBK270089]
viability at 28.5 h, 10 µM: 88.2%

O=C(NCCO)C1CCCN(S(=O)(=O)c2ccc3ccccc3c2)C1 (stereo not shown) [CBK270090]
viability at 28.5 h, 10 µM: 83.7%

O=C(CCNS(=O)(=O)c1ccccc1)N1CCC(Cc2ccccc2)CC1 [CBK270091]
viability at 28.5 h, 10 µM: 84.9%

O=C(Nc1cccnc1)c1cc(S(=O)(=O)N2CCOCC2)ccc1Br [CBK270101]
viability at 28.5 h, 10 µM: 92.4%

Cc1cc(-c2nc3ncccc3o2)ccc1NC(=O)c1ccc2c(c1)OCCO2 [CBK270104]
viability at 28.5 h, 10 µM: 94.1%

COc1ccccc1-c1nnc(SCC(=O)N2CCN(c3ccccc3)CC2)[nH]1 [CBK270105]
viability at 28.5 h, 10 µM: 95.6%

Cc1nnc(SCc2cc(=O)[nH]c(N3CCN(C)CC3)n2)s1 [CBK270106]
viability at 28.5 h, 10 µM: 91.7%

COc1cc(CNCc2ccccn2)ccc1OCc1ccccc1C [CBK270108C]
viability at 28.5 h, 10 µM: 89.3%

CN(C)c1cccc(Oc2nc3c(c(=O)n(C)c(=O)n3C)n2C)c1 [CBK270109]
viability at 28.5 h, 10 µM: 97.8%

CCC(=O)N1CCN(c2ccccc2NC(=O)c2ccc(C#N)cc2F)CC1 [CBK270110]
viability at 28.5 h, 10 µM: 81.8%

CS(=O)(=O)N(CC(=O)NC1CCCCCCC1)c1ccccc1 [CBK270112]
viability at 28.5 h, 10 µM: 96.1%

O=C(CSc1nc2cccnc2[nH]1)Nc1cccc(F)c1 [CBK270113]
viability at 28.5 h, 10 µM: 89.3%

O=C(O)CC1C(=O)NCCN1Cc1ccccc1Cl (stereo not shown) [CBK270114]
viability at 28.5 h, 10 µM: 93%

OCCC1CNCCN1CC1CCCCC1 (stereo not shown) [CBK270115]
viability at 28.5 h, 10 µM: 97.2%

Cc1occc1C(=O)Nc1cnn(CCCC(=O)O)c1 [CBK270116]
viability at 28.5 h, 10 µM: 89.4%

O=C(NCCN1CCOCC1)c1ccc(NS(=O)(=O)c2ccccc2)cc1 [CBK270118]
viability at 28.5 h, 10 µM: 102%

O=C(O)CCCn1cc(NC(=O)Cc2ccccc2F)cn1 [CBK270119]
viability at 28.5 h, 10 µM: 96.3%

Nc1nncn1C(=O)c1ccccc1SCc1ccccc1 [CBK270120]
viability at 28.5 h, 10 µM: 88.9%

CC(C)C(N)c1nnc(SCc2ccccc2Cl)o1 (stereo not shown) [CBK270121C]
viability at 28.5 h, 10 µM: 92%

COc1ccc(Cl)cc1NC(=O)Cn1nc(-c2ccccc2)ccc1=O [CBK270124]
viability at 28.5 h, 10 µM: 85.1%

COc1ccc(CNC(=O)C2CC(=O)N(c3ccc(O)cc3)C2)cc1 (stereo not shown) [CBK270125]
viability at 28.5 h, 10 µM: 96.8%

CC(C)Cc1ccc(S(=O)(=O)Nc2ccc3[nH]c(=O)[nH]c3c2)cc1 [CBK270131]
viability at 28.5 h, 10 µM: 94.3%

CCC(Oc1ccc(C)cc1)C(=O)Nc1ccccc1C(=O)N1CCOCC1 (stereo not shown) [CBK270132]
viability at 28.5 h, 10 µM: 85.6%

COCCNCc1ccc(OCc2ccccc2)cc1 [CBK270133C]
viability at 28.5 h, 10 µM: 91.1%

O=C(O)c1ccc(NC(=O)c2cccc(-n3cnnc3)c2)cc1 [CBK270134]
viability at 28.5 h, 10 µM: 104%

CCNCCOc1c(C)cc(C)cc1C [CBK270137C]
viability at 28.5 h, 10 µM: 108%

COc1ccc(CNC(=O)CCn2c(=O)oc3ccccc32)cc1 [CBK270138]
viability at 28.5 h, 10 µM: 92.7%

Cc1cn2c3c(=O)n(C)c(=O)n(C)c3nc2n1CCN1CCOCC1 [CBK270139]
viability at 28.5 h, 10 µM: 91.7%

O=C1c2ccccc2C(=O)N1CCCc1nn2c(-c3cccnc3)nnc2s1 [CBK270140]
viability at 28.5 h, 10 µM: 80.2%

COc1c(Cl)cc(Cl)cc1CNCc1cccnc1 [CBK270142C]
viability at 28.5 h, 10 µM: 94.2%

COc1ccc(CN2CCNC(=O)C2CC(=O)O)c(F)c1 (stereo not shown) [CBK270143]
viability at 28.5 h, 10 µM: 95.6%

c1ccc2c(c1)nc(N1CCNCC1)n1cnnc21 [CBK270145]
viability at 28.5 h, 10 µM: 100%

Cc1nnc2c(N3CCN(CCO)CC3)nc3ccccc3n12 [CBK270146]
viability at 28.5 h, 10 µM: 83.2%

CCOc1cc(S(=O)(=O)NCc2ccncc2)ccc1Br [CBK270147]
viability at 28.5 h, 10 µM: 82.3%

O=C(Nc1ccccc1-c1nc2ccccc2[nH]1)c1ccncc1 [CBK270148]
viability at 28.5 h, 10 µM: 94.5%

COc1cccc(NC(=O)CCS(=O)(=O)c2ccccc2)c1 [CBK270150]
viability at 28.5 h, 10 µM: 91.9%

CS(=O)(=O)N1CCC(C(=O)NCCN2CCOCC2)CC1 [CBK270151]
viability at 28.5 h, 10 µM: 100%

FC(F)(F)c1ccc(Oc2ccc(-c3noc(-c4ccccn4)n3)cc2)nc1 [CBK270152]
viability at 28.5 h, 10 µM: 90.1%

Cc1cc(C)nc(NCCC(=O)O)n1 [CBK270154]
viability at 28.5 h, 10 µM: 89.1%

O=C1COc2ccc(S(=O)(=O)NCc3ccccc3)cc2N1 [CBK270156]
viability at 28.5 h, 10 µM: 93.7%

Cc1ccc(NC2=NC3(N=C(N)N2)C(=O)N(C)c2ccccc23)cc1 (stereo not shown) [CBK270157]
viability at 28.5 h, 10 µM: 84.9%

Cc1cc2c(cc1S(=O)(=O)NCc1ccccc1)NC(=O)CO2 [CBK270159]
viability at 28.5 h, 10 µM: 85.2%

COc1ccc(CCNC(=O)c2n[nH]c(=O)c3ccccc23)cc1OC [CBK270160]
viability at 28.5 h, 10 µM: 87.6%

O=C1COc2ccc(S(=O)(=O)NCCc3ccccc3)cc2N1 [CBK270162]
viability at 28.5 h, 10 µM: 114%

Cc1ccc(Nc2nc(N)nc(CN3CCCC3)n2)cc1 [CBK270163]
viability at 28.5 h, 10 µM: 97.7%

Cc1cc(C)nc(-n2[nH]c(N)cc2=O)n1 [CBK270164]
viability at 28.5 h, 10 µM: 85.7%

CCc1nnc(SCC(=O)Nc2cc(OC)ccc2OC)[nH]1 [CBK270167]
viability at 28.5 h, 10 µM: 85.1%

CCCNS(=O)(=O)c1ccc(OCC(=O)N2CCN(C)CC2)c(C)c1 [CBK270169]
viability at 28.5 h, 10 µM: 102%

Cc1ccc(Cc2c(C)nc(N3CCN(Cc4ccccc4)CC3)[nH]c2=O)cc1 [CBK270170]
viability at 28.5 h, 10 µM: 115%

CCc1c(C)nc(SC(C(=O)O)c2ccccc2)c(C#N)c1C (stereo not shown) [CBK270174]
viability at 28.5 h, 10 µM: 94.9%

O=C(O)C1=NN(c2ccccc2)C(=O)CC1 [CBK270176]
viability at 28.5 h, 10 µM: 84.4%

CCOc1ccc(S(=O)(=O)NC(C)C(=O)O)cc1C (stereo not shown) [CBK270178]
viability at 28.5 h, 10 µM: 114%

CNS(=O)(=O)c1cc(C(=O)O)ccc1OC [CBK270179]
viability at 28.5 h, 10 µM: 104%

CCCSc1ccc2[nH]c(NC(=O)CSc3nc[nH]n3)nc2c1 [CBK270181]
viability at 28.5 h, 10 µM: 51.8%

O=C(NCc1ccc(-c2nc3ncccc3o2)cc1)c1ccc(F)cc1 [CBK270182]
viability at 28.5 h, 10 µM: 91.3%

CCn1c(CN2CCOCC2)nnc1SCC(=O)Nc1cc(Cl)ccc1C [CBK270183]
viability at 28.5 h, 10 µM: 93.8%

Nc1c(C(=O)c2ccc3c(c2)OCO3)sc2nc(-c3cccnc3)ccc12 [CBK270186]
viability at 28.5 h, 10 µM: 86.3%

CN(C)c1nc(NC2CC2)nc(Oc2ccc(=O)n(-c3ccccc3)n2)n1 [CBK270187]
viability at 28.5 h, 10 µM: 93.9%

CC(=O)c1cc(C#N)c(SCC(=O)O)nc1C [CBK270189]
viability at 28.5 h, 10 µM: 95.8%

COCc1cc(C)n(CC(=O)Nc2ccc(N3CCOCC3)cc2)c(=O)c1C#N [CBK270190]
viability at 28.5 h, 10 µM: 95.2%

N#Cc1cnc2c(-c3ccccc3)c(Cc3ccccc3)nn2c1N [CBK270191]
viability at 28.5 h, 10 µM: 91.8%

CNS(=O)(=O)c1cc(C(=O)N2CCN(c3ccccc3)CC2)ccc1OC [CBK270192]
viability at 28.5 h, 10 µM: 88.9%

O=C(O)c1cccc(CSc2nc3ccccc3o2)c1 [CBK270193]
viability at 28.5 h, 10 µM: 91.7%

O=C(NCc1cccnc1)c1cc2c(ccc3ccccc32)oc1=O [CBK270195]
viability at 28.5 h, 10 µM: 95.7%

Cc1cc2c(cc1S(=O)(=O)NCCc1ccccc1)NC(=O)CO2 [CBK270196]
viability at 28.5 h, 10 µM: 102%

Cc1ccc(-c2noc(CNC(=O)CSc3ccccc3)n2)cc1 [CBK270199]
viability at 28.5 h, 10 µM: 91.5%

COc1cc(CNCc2ccco2)ccc1OCC(N)=O [CBK270204C]
viability at 28.5 h, 10 µM: 105%

Cc1c(C(=O)NCCCN2CCOCC2)oc2c1C(=O)CCC2 [CBK270207]
viability at 28.5 h, 10 µM: 93.1%

O=S(=O)(NCCn1cccc1)c1ccc2ccccc2c1 [CBK270211]
viability at 28.5 h, 10 µM: 90.4%

COc1c(Cl)cc(Cl)cc1CNC(C)(C)CO [CBK270212C]
viability at 28.5 h, 10 µM: 102%

COc1ccc(NC(=O)CSc2ncnc3ccccc23)cc1 [CBK270215]
viability at 28.5 h, 10 µM: 94%

COc1ccc(NS(=O)(=O)c2ccc(N3CCCC3=O)cc2)cn1 [CBK270216]
viability at 28.5 h, 10 µM: 84.9%

Cc1cc(NC(=O)c2sc3nc4c(cc3c2N)N2CCC4CC2)no1 [CBK270217]
viability at 28.5 h, 10 µM: 100%

COc1ccc(C(NC(C)=O)c2nccc3cc(OC)c(OC)cc23)cc1OC (stereo not shown) [CBK270219]
viability at 28.5 h, 10 µM: 94.6%

O=c1cc(O)c2sc3nc(-c4ccco4)cc(C(F)(F)F)c3c2[nH]1 [CBK270223]
viability at 28.5 h, 10 µM: 98.2%

CCc1nnc(SCC(=O)Nc2cccc(OC)c2)[nH]1 [CBK270226]
viability at 28.5 h, 10 µM: 93.7%
